What was measured:
liver = assay: In vivo gene expression, luciferase luminescence in the liver after tail vein administration (Experimental Example 4); conditions: BALB/c mouse, mRNA 0.05 mg/kg; for amount of luminescence (photons/sec) in liver: tail vein, 4.5 hr after administration, LNP cationic lipid:DOPC:Chol:DMG-PEG2k = 52.5:7.5:40:1.5, prepared as in Experimental Example 2; for relative amount of luminescence: liver luminescence relative to cationic lipid of Comparative Example
Protocol: LNP encapsulating mRNA that expresses luciferase (cationic lipid:DOPC:Chol:DMG-PEG2k = 52.5:7.5:40:1.5 (molar ratio)) was prepared by the method described in [Experimental Example 2], 1.
The prepared each mRNA-encapsulating LNP dispersion was administered from the tail vein of BALB/c mouse (male, 5-week-old). The dose of mRNA was set to 0.05 mg per 1 kg body weight of the mouse, and the dose of the mRNA-encapsulating LNP dispersion was set to 10 µL per 1 g body weight of the mouse. After 4.5 hr from the administration of the mRNA-encapsulating LNP dispersion, a PBS solution of D-luciferin potassium was administered into the abdominal cavity of the mouse. The dose of D-luciferin potassium was set to 3 mg per mouse, and the dose of the PBS solution of D-luciferin potassium was set to 200 µL per mouse. After 15 min from the administration of the PBS solution of D-luciferin potassium, the mouse was euthanized, and the liver was isolated. The luminescence in the liver was quantified using an in vivo imaging system (IVIS) with an exposure of 10 sec. The amount of luminescence in the liver was quantified by image analysis using Live Imaging software attached to IVIS. The amount of luminescence (photons/sec) was calculated from the acquired image and used as an index of gene expression activity. The cationic lipids used, the luminescence intensity in the liver, and the relative luminescence intensity (= luminescence intensity in the liver when cationic lipid of Example was used/luminescence intensity in the liver when cationic lipid of Comparative Example was used) are shown in Table 7-1 to Table 7-3. "E+0a" (a: integer) indicated in Table 7-1 to Table 7-3 means "10^a". For example, "3.94E+09" means "3.94×10^9". […]

[1] = Particle size, PdI and zeta potential of mRNA-encapsulating LNPs by dynamic light scattering (Experimental Example 2); type: physicochemical
Protocol: An acidic buffer solution (total amount: 1080 µL) of nucleic acid was prepared by weighing 7.2 µg of mRNA solution (0.6 mg/mL) in a 5 mL tube and adding acidic malate buffer (20 mM, pH 3.0).
An acidic buffer solution of nucleic acid and an ethanol solution of lipid were each weighed in a syringe.
The particle size, PdI (Polydispersity Index), and zeta potential of the mRNA-encapsulating LNP prepared by the method of the above-mentioned 1 were measured by a dynamic light scattering method (Zetasizer Nano; Malvern).

HeLa cells = assay: In vitro gene expression in HeLa cells (luciferase mRNA-encapsulating LNP, cumulative luminescence in 24 hr); conditions: for cumulative luciferase luminescence intensity (RLU) in 24 hr: LNP cationic lipid:DOPC:Chol:DMG-PEG2k = 50:10:40:1, mRNA 0.2 µg per dish, E+0a means 10^a; for relative luminescence intensity: cumulative intensity in 24 hr relative to cationic lipid of Comparative Example
Protocol: LNP encapsulating mRNA that expresses luciferase (cationic lipid:DOPC:Chol:DMG-PEG2k = 50:10:40:1 (molar ratio)) was prepared by the method described in [Experimental Example 2], 1.
HeLa cells, which are human cervical cancer cells, were seeded in a 3.5 cm dish at 5.0×10^4 cells/2 mL/Dish 24 hours before transfection. After 24 hr, the medium was changed to a culture medium (D-MEM) containing 0.1 mM D-luciferin. The prepared mRNA-encapsulating LNP was diluted with PBS to an mRNA concentration of about 1 µg/mL. The diluted mRNA-encapsulating LNP solution (about 200 µL, mRNA: 0.2 µg) was added to a 3.5 cm dish, and set in an incubator luminometer KronosDio. The luminescence intensity of luciferase was measured for 2 min every one hour. The cumulative luciferase luminescence intensity in 24 hr was calculated from the obtained time change of expression. […] In Comparative Example, the cationic lipid described in Table 2 was used.

[2] = Particle size, PdI and zeta potential of mRNA-encapsulating LNPs by dynamic light scattering (Experimental Example 6); type: physicochemical; conditions: mRNA-encapsulating LNP; for zeta potential (mV): cationic lipid:DOPC:Chol=49:7.5:42.5:1, dispersion in TBS (Tables 8-1, 8-2); for PdI / particle size (nm): cationic lipid:DOPC:Chol=49:7.5:42.5:1, dispersion in TBS, dynamic light scattering (Tables 8-1, 8-2)
Protocol: An acidic buffer solution (total amount: 1300 µL) of nucleic acid was prepared by weighing 6.5 µg of mRNA solution (0.6 mg/mL) in a 5 mL tube and adding acidic citrate buffer (20 mM, pH 5.0).
An acidic buffer solution of nucleic acid and an ethanol solution of lipid were each weighed in a syringe. […] The obtained concentrate was diluted with TBS to a lipid concentration of 2 mM to give a dispersion containing LNP.
The particle size, PdI (Polydispersity Index), and zeta potential of the mRNA-encapsulating LNP prepared by the method of the above-mentioned 1 were measured by a dynamic light scattering method (Zetasizer Nano; Malvern). […]

[3] = mRNA-encapsulating LNP, cationic lipid:DOPC:Chol = 50:10:40 (molar ratio) + DMG-PEG2k about 1 mol, Polydispersity Index, dynamic light scattering
[4] = mRNA-encapsulating LNP, cationic lipid:DOPC:Chol = 50:10:40 (molar ratio) + DMG-PEG2k about 1 mol, Zetasizer Nano
[5] = mRNA-encapsulating LNP, cationic lipid:DOPC:Chol = 50:10:40 (molar ratio) + DMG-PEG2k about 1 mol, dynamic light scattering
[6] = mRNA-encapsulating LNP containing the cationic lipid, dispersion in PBS (Table 5-3)
[7] = mRNA-encapsulating LNP containing the cationic lipid, dispersion in PBS, dynamic light scattering (Table 5-3)

| SMILES | amount of luminescence (photons/sec) in liver (liver) | relative amount of luminescence (liver) | PdI [1, 3] | zeta potential (mV) [1, 4] | particle size (nm) [1, 5] | cumulative luciferase luminescence intensity (RLU) in 24 hr (HeLa cells) | relative luminescence intensity (HeLa cells) | zeta potential (mV) [1, 6] | PdI [1, 7] | particle size (nm) [1, 7] | zeta potential (mV) [2] | PdI [2] | particle size (nm) [2] |
| --- | --- | --- | --- | --- | --- | --- | --- | --- | --- | --- | --- | --- | --- |
| CCCCCC/C=C\COC(=O)CCCC(=O)Oc1ccc(CC(=O)OCCC2CCN(CCSSCCN3CCC(CCOC(=O)Cc4ccc(OC(=O)CCCC(=O)OC/C=C\CCCCCC)cc4)CC3)CC2)cc1 [compound 41] | 1.73E+09 photons/sec | 1.14 | 0.067 | -2.30 mV | 123.30 nm |  |  |  |  |  |  |  |  |
| CCCCCCCC/C=C\CCCCCCCC(=O)Oc1ccc(CC(=O)OCCC2CCN(CCSSCCN3CCC(CCOC(=O)Cc4ccc(OC(=O)CCCC(=O)OC[C@H](COC(=O)CCCCCCC)OC(=O)CCCCCCC)cc4)CC3)CC2)cc1 [compound 5] | 3.76E+09 photons/sec | 2.48 | 0.112 | -4.68 mV | 106.10 nm | 4.16E+07 RLU | 2.25 |  |  |  |  |  |  |
| CCCCCCCC/C=C\CCCCCCCC(=O)Oc1ccc(CC(=O)OCCC2CCN(CCSSCCN3CCC(CCOC(=O)Cc4ccc(OC(=O)CCCCCCCCCCC(CCCCCC)OC(=O)CCCCCCC)cc4)CC3)CC2)cc1 (centres unmarked) [compound 145] | 6.65E+09 photons/sec | 4.37 |  |  |  |  |  | -2.39 mV | 0.034 | 83.1 nm | -3.79 mV | 0.082 | 122.1 nm |
| CCCCCC/C=C\COC(=O)CCCC(=O)Oc1ccc(CC(=O)OCCC2CCN(CCSSCCN3CCC(CCOC(=O)Cc4ccc(OC(=O)CCCCCCC/C=C\CCCCCCCC)cc4)CC3)CC2)cc1 [compound 43] |  |  | 0.072 | -3.98 mV | 90.46 nm |  |  |  |  |  | -5.9 mV | 0.17 | 128.2 nm |
| CCCCCCCC/C=C\CCCCCCCC(=O)Oc1ccc(CC(=O)OCCC2CCN(CCSSCCN3CCC(CCOC(=O)Cc4ccc(OC(=O)CCCC(=O)OC[C@H](COC(=O)CCCCC)OC(=O)CCCCC)cc4)CC3)CC2)cc1 [compound 13] |  |  | 0.073 | -3.63 mV | 94.42 nm | 1.24E+08 RLU | 6.72 |  |  |  |  |  |  |
| CCCCCCC#CCCOC(=O)CCCC(=O)Oc1ccc(CC(=O)OCCC2CCN(CCSSCCN3CCC(CCOC(=O)Cc4ccc(OC(=O)CCCCCCCC(=O)OC(CCCCCCCC)CCCCCCCC)cc4)CC3)CC2)cc1 [compound 148] |  |  | 0.063 | -4.31 mV | 92.96 nm |  |  |  |  |  | -7.4 mV | 0.15 | 133.6 nm |
| CCCCCCCC/C=C\CCCCCCCC(=O)Oc1ccc(CC(=O)OCCC2CCN(CCSSCCN3CCC(CCOC(=O)Cc4ccc(OC(=O)CCCCCCC/C=C\C[C@H](CCCCCC)OC(C)=O)cc4)CC3)CC2)cc1 [compound 1] | 3.94E+09 photons/sec | 2.59 | 0.070 | -3.79 mV | 96.63 nm | 2.61E+07 RLU | 1.42 |  |  |  |  |  |  |
| CCCCCCC#CCCOC(=O)CCCC(=O)Oc1ccc(CC(=O)OCCC2CCN(CCSSCCN3CCC(CCOC(=O)Cc4ccc(OC(=O)CCCC(=O)Oc5c(C)c(C)c6c(c5C)CCC(C)(CCCC(C)CCCC(C)CCCC(C)C)O6)cc4)CC3)CC2)cc1 (centres unmarked) [compound 150] |  |  | 0.071 | -2.14 mV | 94.66 nm |  |  |  |  |  | -8.1 mV | 0.11 | 130.2 nm |
| CCCCCCCC/C=C\CCCCCCCC(=O)Oc1ccc(CC(=O)OCCC2CCN(CCSSCCN3CCC(CCOC(=O)Cc4ccc(OC(=O)CCCC(=O)N(CCCCCC)CCCCCC)cc4)CC3)CC2)cc1 [compound 124] | 5.12E+09 photons/sec | 3.37 |  |  |  |  |  | -5.07 mV | 0.111 | 96.63 nm |  |  |  |
| CCCCCC[C@@H](C/C=C\CCCCCCCC(=O)Oc1ccc(CC(=O)OCCC2CCN(CCSSCCN3CCC(CCOC(=O)Cc4ccc(OC(=O)CCCC(=O)OC[C@H](COC(C)=O)OC(C)=O)cc4)CC3)CC2)cc1)OC(=O)CCCCC [compound 17] | 3.73E+09 photons/sec | 2.45 | 0.061 | -5.19 mV | 127.90 nm | 5.18E+07 RLU | 2.81 |  |  |  |  |  |  |
| CCCCCCC#CCCOC(=O)CCCC(=O)Oc1ccc(CC(=O)OCCC2CCN(CCSSCCN3CCC(CCOC(=O)Cc4ccc(OC(=O)CCCCCCC/C=C\CCCCCCCC)cc4)CC3)CC2)cc1 [compound 149] |  |  | 0.059 | -6.03 mV | 97.44 nm |  |  |  |  |  | -6.2 mV | 0.15 | 123.1 nm |
